In assay [1] the target is T1, rat GPR14 (U-II receptor) (Rattus norvegicus, UniProt P49684).
T1 construct: expressed in transfected cells
T1 sequence (P49684 1-386): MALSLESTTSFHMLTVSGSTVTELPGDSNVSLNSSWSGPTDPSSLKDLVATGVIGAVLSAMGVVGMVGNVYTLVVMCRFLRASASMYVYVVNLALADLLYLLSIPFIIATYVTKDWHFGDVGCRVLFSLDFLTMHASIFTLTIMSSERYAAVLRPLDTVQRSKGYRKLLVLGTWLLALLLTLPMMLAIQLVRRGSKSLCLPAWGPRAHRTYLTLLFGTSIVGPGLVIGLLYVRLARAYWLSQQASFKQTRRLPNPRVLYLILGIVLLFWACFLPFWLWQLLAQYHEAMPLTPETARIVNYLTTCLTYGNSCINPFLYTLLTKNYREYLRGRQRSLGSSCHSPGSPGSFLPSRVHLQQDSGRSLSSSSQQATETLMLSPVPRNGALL
The experiment in a line: Rat UII Calcium Mobilization FLIPR Assay. It is filed as cell-based. The following applies: average value for the compound tested; read-out: Rat UII FLIPR Average IC50. The procedure, abridged: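 Fluorescent calcium signals were recorded at room temperature (23° C) by FLIPR. Stable rat U-II receptor CHO lines had been dye-loaded for 1 h at 37° C in pH 7.4 HBSS containing 20 mM HEPES, 0.1% BSA and 2.5 mM probenecid.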
For orientation: Calcium assays in cells follow changes in intracellular calcium, usually with a dye or a luminescent sensor.

In assay [2] the target is T2, endogenous human UII receptor (Homo sapiens, UniProt Q9UKP6).
T2 sequence (Q9UKP6 1-389): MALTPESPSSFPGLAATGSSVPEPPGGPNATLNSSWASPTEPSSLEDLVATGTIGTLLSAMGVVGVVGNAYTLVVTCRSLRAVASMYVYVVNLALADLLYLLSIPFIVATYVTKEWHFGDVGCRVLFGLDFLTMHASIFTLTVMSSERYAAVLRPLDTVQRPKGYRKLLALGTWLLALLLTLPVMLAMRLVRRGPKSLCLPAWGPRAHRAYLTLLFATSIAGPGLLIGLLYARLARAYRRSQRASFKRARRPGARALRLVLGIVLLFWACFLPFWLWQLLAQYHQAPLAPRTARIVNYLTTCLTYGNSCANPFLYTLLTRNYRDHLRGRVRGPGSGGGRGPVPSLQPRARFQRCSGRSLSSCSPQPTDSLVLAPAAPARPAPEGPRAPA
The experiment in a line: Human Radioligand Binding Assay ((^125I)-U-II binding to human skeletal muscle myoblasts).

Assay [3] addresses T3, Human UII receptor, 6D9 human rhabdomyosarcoma cells (Homo sapiens, UniProt Q9UKP6).
T3 construct: 6D9: isolated by dilution subcloning of RMS13 cells, ATCC® Number: CRL-2061; host or cells: 6D9 human rhabdomyosarcoma cells (subclone of RMS13)
T3 sequence (Q9UKP6 1-389): T2 sequence (Q9UKP6 1-389)
Kind of assay: Human UII Calcium Mobilization Assay. The assay is classed as cell-based. The following applies: average value, FLIPR TETRA, read-out: Human UII Ca^+ Mobilization Average IC50. As for the experimental part:
6D9 human rhabdomyosarcoma cells were seeded into tissue culture treated 384-well black-walled clear bottom plates (3712, Corning Incorporated, Corning, N.Y.) at 8,000 cells/well in 25 μL of culture medium, and maintained in an incubator (5% CO2 at 37° C.) for 22 hrs prior to the calcium mobilization assay. 25 μL of dye solution was added to the wells such that the final liquid volume before agonist/antagonist treatment was 50 μL for all assays. The cell plates were incubated at 37° C. for 45 minutes and the fluorescence intensity was measured on a Fluorometric Imaging Plate Reader (FLIPR^TETRA, Molecular Devices, Sunnyvale, Calif.).
Antagonist and agonist U-II were added at room temperature on the FLIPR^TETRA, and the fluorescence intensity before and after addition was measured over a period of 4 minutes. The dye incubation time and temperature as well as instrument setting was adjusted so the fluorescence intensity could be compared between plates on the same day. EC50 and IC50 were analyzed using GraphPad Prism 4 software (GraphPad Software Inc., San Diego, Calif.).
Materials and reagent Preparation: Human Rhabdomyosarcoma cells (6D9: isolated by dilution subcloning of RMS13 cells, ATCC® Number: CRL-2061, American Type Culture Collection ATCC, Manassas, Va.) was maintained in RPMI-1640 medium (30-2001, ATCC, Manassas, Va.) supplemented with 10% (v/v) Fetal Bovine Serum (SH30071.03, Hyclone, Logan, Utah).
Dye preparation: BD™ Calcium Assay Kit (80500-301, BD Biosciences, Rockville, Md.) was prepared according to the manufacture's instruction in 1× Hanks' balanced salt solution (HBSS, 21-023-CV, Mediatech, Inc. Herndon, Va.) containing 20 mM HEPES buffer (25-060-CI, Mediatech, Inc. Herndon, Va.). Final dye loading conditions included 1.25 mM probenecid (P36400, Invitrogen, Carlsbad, Calif.) and 0.01% FBS.
Urantide (PUT-3639-PI, Peptide International, Louisville, Ky.) was prepared in water at 5 mM. For assays, U-II agonist, U-II antagonist and urantide were diluted with HBSS/HEPES containing 0.01% FBS.
Test compounds were dissolved in DMSO at 10 mM concentration. The serial dilutions were carried out in HBSS/HEPES. The highest final DMSO concentration was at 0.1%.

Setting [4] is: read-out: Human UII Average Binding Ki, average value, (^125I)-U-II binding to human skeletal muscle myoblasts (HSMM), 25° C., 3 h.

One may read the IC50 as the point on the concentration scale where inhibition reaches its midpoint. The term Ki denotes a dissociation constant, usually derived from enzyme kinetics or from competition with a known ligand.

Where two headings read alike, the source gives them in different places.

As for `COc1ccc(C(CCCNS(=O)(=O)c2ccsc2)N2C(=O)c3cccc(N4CCN([C@H](C)c5ccccc5)CC4)c3C2=O)cc1OC` (stereo partly drawn) [Cpd 105, thiophene-3-sulfonic acid (4-(3,4-dimethoxy-phenyl)-4-{1,3-dioxo-4-[4-(1R)-(1-phenyl-ethyl)-piperazin-1-yl]-1,3-dihydro-isoindol-2-yl}-butyl)-amide], the figures for the IC50 in assay [1] and in assay [3] were 68 nM and 110 nM, respectively. Moreover, the Ki in assay [2] turned out to be 65 nM.
Taken in the same sequence, the figures for `COc1ccc(C(CCCNS(=O)(=O)c2cccnc2)N2C(=O)c3cccc(N4CCN([C@H](C)c5ccccc5)CC4)c3C2=O)cc1OC` (stereo partly drawn) [Cpd 106, pyridine-3-sulfonic acid (4-(3,4-dimethoxy-phenyl)-4-{1,3-dioxo-4-[4-(1R)-(1-phenyl-ethyl)-piperazin-1-yl]-1,3-dihydro-isoindol-2-yl}-butyl)-amide] were 16 nM, 230 nM and 80 nM.
Regarding `COc1ccc(C(CCCNS(=O)(=O)c2ccccn2)N2C(=O)c3cccc(N4CCN([C@H](C)c5ccccc5)CC4)c3C2=O)cc1OC` (stereo partly drawn) [Cpd 107, pyridine-2-sulfonic acid (4-(3,4-dimethoxy-phenyl)-4-{1,3-dioxo-4-[4-(1R)-(1-phenyl-ethyl)-piperazin-1-yl]-1,3-dihydro-isoindol-2-yl}-butyl)-amide], the values for the IC50 in assay [1] and in assay [3] were 25 nM and 440 nM, respectively. In assay [2], this compound showed a Ki of 10 nM.
On the same counts, the results for `COc1ccc(C(CCCNS(=O)(=O)c2cnoc2C)N2C(=O)c3cccc(N4CCN([C@H](C)c5ccccc5)CC4)c3C2=O)cc1OC` (stereo partly drawn) [Cpd 108, 5-methyl-isoxazole-4-sulfonic acid (4-(3,4-dimethoxy-phenyl)-4-{1,3-dioxo-4-[4-(1R)-(1-phenyl-ethyl)-piperazin-1-yl]-1,3-dihydro-isoindol-2-yl}-butyl)-amide] are 14 nM, 46 nM and 31 nM.
Consider `COc1ccc(C(CCCNS(=O)(=O)c2cccc3cccnc23)N2C(=O)c3cccc(N4CCN([C@H](C)c5ccccc5)CC4)c3C2=O)cc1OC` (stereo partly drawn) [Cpd 109, quinoline-8-sulfonic acid (4-(3,4-dimethoxy-phenyl)-4-{1,3-dioxo-4-[4-(1R)-(1-phenyl-ethyl)-piperazin-1-yl]-1,3-dihydro-isoindol-2-yl}-butyl)-amide], for which the IC50 in assay [1] was determined as 27 nM; in assay [3], 300 nM. The affinity in assay [2], expressed as Ki, was 19 nM.
For `COc1ccc(C(CCCNS(=O)(=O)CS(C)(=O)=O)N2C(=O)c3cccc(N4CCN([C@H](C)c5ccccc5)CC4)c3C2=O)cc1OC` (stereo partly drawn) [Cpd 110, N-(4-(3,4-dimethoxy-phenyl)-4-{1,3-dioxo-4-[4-(1R)-(1-phenyl-ethyl)-piperazin-1-yl]-1,3-dihydro-isoindol-2-yl}-butyl)-C-methanesulfonyl-methanesulfonamide], the figures for the IC50 in assay [1] and in assay [3] were 19 nM and 250 nM, respectively. This compound showed a Ki in assay [2] of 25 nM.
As for `COc1ccc(C(CCCNS(=O)(=O)c2c(C)noc2C)N2C(=O)c3cccc(N4CCN([C@H](C)c5ccccc5)CC4)c3C2=O)cc1OC` (stereo partly drawn) [Cpd 112, 3,5-dimethyl-isoxazole-4-sulfonic acid (4-(3,4-dimethoxy-phenyl)-4-{1,3-dioxo-4-[4-(1R)-(1-phenyl-ethyl)-piperazin-1-yl]-1,3-dihydro-isoindol-2-yl}-butyl)-amide], the IC50 in assay [1] was 69 nM; in assay [3] it was 1400 nM. For the same compound, in assay [2], the inhibition constant (Ki) stood at 26 nM.
Take `COc1ccc(C(CCCNS(=O)(=O)c2cn(C)c(C)n2)N2C(=O)c3cccc(N4CCN([C@H](C)c5ccccc5)CC4)c3C2=O)cc1OC` (stereo partly drawn) [Cpd 114, 1,2-dimethyl-1H-imidazole-4-sulfonic acid (4-(3,4-dimethoxy-phenyl)-4-{1,3-dioxo-4-[4-(1R)-(1-phenyl-ethyl)-piperazin-1-yl]-1,3-dihydro-isoindol-2-yl}-butyl)-amide]: the IC50 in assay [1] was 17 nM; in assay [3] it was 470 nM. Further, in assay [2], affinity was put at a Ki of 11 nM.
For the compound `COc1ccc(C(CCCNS(=O)(=O)N(C)C)N2C(=O)c3cccc(N4CCN([C@H](C)c5ccccc5)CC4)c3C2=O)cc1OC` (stereo partly drawn) [Cpd 115, N′-[(4-(3,4-dimethoxy-phenyl)-4-{1,3-dioxo-4-[4-(1R)-(1-phenyl-ethyl)-piperazin-1-yl]-1,3-dihydro-isoindol-2-yl}-butyl)]-N,N-dimethyl-sulfamide], the IC50 in assay [1] amounted to 28 nM; in assay [3], 460 nM. In assay [2], this compound came in with a Ki of 39 nM.
`COc1ccc(C(CCCNS(=O)(=O)Cc2ccccc2)N2C(=O)c3cccc(N4CCN([C@H](C)c5ccccc5)CC4)c3C2=O)cc1OC` (stereo partly drawn) [Cpd 117, N-(4-(3,4-dimethoxy-phenyl)-4-{1,3-dioxo-4-[4-(1R)-(1-phenyl-ethyl)-piperazin-1-yl]-1,3-dihydro-isoindol-2-yl}-butyl)-C-phenyl-methanesulfonamide]: the IC50 was 58 nM in assay [1] and 700 nM in assay [3]. Also, in assay [2], the Ki amounted to 32 nM.
In the case of `COc1ccc([C@@H](CCCNS(=O)(=O)c2cccs2)N2C(=O)c3cccc(N4CCN([C@H](C)c5ccccc5)CC4)c3C2=O)cc1OC` [Cpd 118, (R)-thiophene-2-sulfonic acid (4-(3,4-dimethoxy-phenyl)-4-{1,3-dioxo-4-[4-(1R)-(1-phenyl-ethyl)-piperazin-1-yl]-1,3-dihydro-isoindol-2-yl}-butyl)-amide], the IC50 in assay [1] stood at 29 nM; in assay [3], 240 nM. In assay [2] (setting [4]), the Ki turned out to be 49 nM.
Turning to `COc1ccc([C@H](CCCNS(=O)(=O)c2cccs2)N2C(=O)c3cccc(N4CCN([C@H](C)c5ccccc5)CC4)c3C2=O)cc1OC` [Cpd 119], the IC50 in assay [1] is 69 nM; in assay [3], 260 nM. For the same compound, the Ki in assay [2] (setting [4]) turned out to be 120 nM.
On to `COc1ccc(C(CCCNS(N)(=O)=O)N2C(=O)c3cccc(N4CCN([C@H](C)c5ccccc5)CC4)c3C2=O)cc1OC` (stereo partly drawn) [Cpd 122, N′-[(4-(3,4-dimethoxy-phenyl)-4-{1,3-dioxo-4-[4-(1R)-(1-phenyl-ethyl)-piperazin-1-yl]-1,3-dihydro-isoindol-2-yl}-butyl)]-sulfamide], for which the IC50 in assay [1] came to 12 nM; in assay [3], 500 nM. The compound also returned a Ki in assay [2] of 120 nM.
Turning to `COc1ccc(CC(c2ccc(OC)c(OC)c2)N2C(=O)c3cccc(N4CCN([C@H](C)c5ccccc5)CC4)c3C2=O)cc1OC` (stereo partly drawn) [Cpd 123, 2-[1,2-bis-(3,4-dimethoxy-phenyl)-ethyl]-4-[4-(1R)-(1-phenyl-ethyl)-piperazin-1-yl]-isoindole-1,3-dione], the IC50 in assay [1] was found to be 250 nM; in assay [3], 3100 nM. The same compound yielded a Ki in assay [2] of 570 nM.

These data come from patent US8193191B2, “Urotensin II receptor antagonists” (Janssen Pharmaceutica N.V., priority 2006, dated 2012).
